Measured values as given in patent US5801270A, “Amine derivative and detergent composition containing the same” (Kao Corporation, priority 1993, dated 1998).

Tests used:
[1] = Irritativeness and feeling of the compound on the user's skin and hair; details: in words
[2] = Cytotoxic effect on SIRC cells (Giemsa stain, 48 hours); type: cell-based, rabbit; details: rabbit, 48 hours culture, 655 nm, read-out: IC50
Protocol: (§1) The cytotoxic effect of the compounds according to the present invention was tested in accordance with the following method.
(§2) Four days prior to exposure to a substance to be tested, SIRC cells (established cell line of fibroblasts in the epithelial parenchymal layer of a rabbit eye) were disseminated on a 96-well plate in a concentration of 3×10^3 cells/well to culture them under conditions of 37° C. and 5% CO2.
(§3) The test substance was dissolved in physiological saline to give a concentration of 1 wt. % or 10 wt. %. This solution was diluted with a culture medium. After the thus-obtained test solution was added to the culture solution to conduct culture for 48 hours, the culture solution was washed twice with PBS (pH 7.4) and fixed in methanol to stain with a Giemsa stain. After washing and drying, a mixture of 1N HCl/ethanol (1/9) was added to extract the stained solution, followed by measurement by means of a microplate reader (655 nm). The concentration at which […] was expressed as IC50 (ppm).

[3] = tested on: SIRC cells; test: as above; type: cell-based, rabbit; details: 48 hours culture, 655 nm
Protocol: as §1, §2, §3

Q: With `CCCCCCCCN(CC(O)CN(CCCCCCCC)C(=O)CCC(=O)[O-])CC(O)CN(CCCCCCCC)C(=O)CCC(=O)[O-].[Na+].[Na+]` (stereo not drawn) as the molecule, how does the irritativeness [1] read?
A: low

Q: With `CCCCCCCCN(CC(O)CN(CCCCCCCC)C(=O)CC(C(=O)O)S(=O)(=O)[O-])CC(O)CN(CCCCCCCC)C(=O)CC(C(=O)O)S(=O)(=O)[O-].[Na+].[Na+]` (stereo not drawn) as the molecule, how does the irritativeness [1] read?
A: low

Q: For “6-butyl-4,8-dihydroxy-2,10-dioctyl-2,6,10-triaza-1,1,11,11-undecanetetracarboxylic acid [Example 12]”, which irritativeness [1] is on record?
A: low

Q: For `CCCCCCCCN(CC(=O)O)CC(O)CN(CCCC)CC(O)CN(CCCCCCCC)CC(=O)O` (stereo not drawn) [Example 8, 6-butyl-4,8-dihydroxy-2,10-dioctyl-2,6,10-triaza-1,11-undecanedicarboxylicacid], which irritativeness [1] is on record?
A: low

Q: For `CCCCCCCCCCCCN(CCOS(=O)(=O)O)CC(CN(CCCCCCCCCCCC)CC(CN(CCCCCCCCCCCC)CCOS(=O)(=O)O)OS(=O)(=O)O)OS(=O)(=O)O` (stereo not drawn) [Example 10, sodium 3,7,11-tridodecyl-3,7,11-triaza-1,5,9,13-tridecanetetrasulfate], which CC50 at 48 h [2] is on record?
A: 790 µg/mL

Q: What about the irritativeness [1] of the same molecule?
A: low

Q: What does the source list for `CCCCCCCCCCCCN(CCOS(=O)(=O)O)CC(CN(CCCCCCCCCCCC)CC(CN(CCCCCCCCCCCC)CC(CN(CCCCCCCCCCCC)CC(CN(CCCCCCCCCCCC)CCOS(=O)(=O)O)OS(=O)(=O)O)OS(=O)(=O)O)OS(=O)(=O)O)OS(=O)(=O)O` (stereo not drawn) [Example 11, sodium 3,7,11,15,19-pentadodecyl-3,7,11,15,19-pentaaza-1,5,9,13,17,21-heneicosanehexasulfate]?
A: IC50 [3]: > 1000 ppm; irritativeness [1]: low

Q: With `CCCCCCCCCCCCOS(=O)(=O)[O-].[Na+]` [Sodium dodecyl sulfate, reference compound] as the molecule, how does the CC50 at 48 h [2] read?
A: 82 µg/mL
